In US9463174B2, “Pharmaceutical composition for the treatment of type-1 diabetes” (priority 2008, dated 2016):
Entries after “also recorded” stand apart in the source; their conditions may differ.

Legend:
[1] = tested on: MLDS CD1 mice; test: Prevention of multiple-low-dose-streptozotocin (MLDS) induced diabetes by daily GABA injection; format: in vivo
Experimental: As shown in the FIG. 1, the diabetes induction by multiple-low-dose-streptozotocin (i.p. 40 mg/kg for four consecutive days, MLDS) in mice can be prevented by daily injection of GABA. The MLSD murine model is commonly used for study of T1D (Rossini A A et al, 1978 Nature. 276(5684):182-4; Harlan D M et al, 1995 Diabetes 44(7):816-23) in which the beta-cells are destroyed by the toxic streptozotocin that leads to insulin insufficiency. To certain extent, T-cell mediated beta-cell inflammation (insulitis) is found in the multiple-low-dose streptozotocin induced diabetic hyperglycemia. However, insulitis may not be necessary occurred in the hyperglycemic mice induced by one injection of streptozotocin of high dose (i.e. 200-250 mg/kg), as in the latter case the beta-cell are rapidly destroyed. […] GABA has no effect on the glucose tolerance in normal mice as determined by intraperitoneal glucose tolerance test (IPGTT) 7 days before STZ injection.
(§1) The techniques used for the in vivo and in vitro studies in this embodiment of the disclosure are also described. CD1 mice (Charles River Laboratories, St Constant, Canada), NOD mice and transgenic TCR NOD mice (Jackson Laboratory, USA) were housed under a controlled temperature and a 12-h light/12-h dark cycle in the St. Michael's Hospital Animal facility with free access to food (normal rodent chow) and water, except where noted. All procedures were conducted according to protocols and guidelines approved by the Canadian Council of Animal Care and the St. Michael's Hospital Animal Care committee. Mice were treated with GABA by daily intraperitoneal (i.p.) injection of 20·g GABA per mouse to reach ˜200 μM circulation concentration and PBS as control. The daily treatment is continuously conducted during 60-day experimental period. One wk after the GABA and PBS treatment, diabetes was induced in both groups by i.p.-injection of low-dose streptozotocin (STZ, Sigma Chemical Co., St. Louis, Mo. 40 mg/kg body weight) for 5 consecutive days. The development of hyperglycemia was monitored by measuring blood glucose from the tail vein every third day following STZ injections using an Ascensia ELITE® XL glucose meter. For some studies, overtly diabetic mice induced by STZ and without GABA treatment were divided into two groups: one group started receiving daily i.p. injection of 20·g GABA whereas other group received only PBS. The treatment was continued for 75 days. The handling of the NOD mice were similar to those CD1 mice except the STZ injection. The NOD mice have a susceptibility to spontaneous development of autoimmune T1D. The TCR transgenic 8.3-NOD mice have a markedly accelerated disease (J. Vergdaguer et al, 1997 J Exp Med. 186(10):1663-76).
Groups of mice were subject to a glucose tolerance test (IPGTT) before treatment (day 0), one, three, and five weeks after administration and the day prior termination. For IPGTT, mice were fasted overnight for 15 h, and were given 1.5 g glucose/kg body weight via i.p.-injection. Blood was drawn from the tail vein and blood glucose was measured at 0, 10, 20, 30, 60, 90, and 120 min after glucose administration.
Insulin tolerance test (ITT) was performed in non-fasting mice by i.p.-injection of 2.5 unit insulin/kg body weight. Blood was drawn from the tail vein and blood glucose levels were measured at 0, 20, 30, 40, 60, 90, and 120 min after insulin administration. Glucagon tolerance test (GTT) was performed in 15 hrs fasted mice: glucagon were i.p.-injected (50 ng/g body weight) and blood was drawn from the tail vein and blood glucose levels were measured at 0, 10, 20, 30, 60, 90, and 120 min after glucagon administration.
Mice were housed in metabolic cages prior to initiation of GABA and PBS treatment and before termination of experiments. Food intake, water consumption and urine output were measured. To determine the fat distribution, three intra-abdominal fat pads retroperitoneal, mesenteric and epididymal were dissected and weighed. […]

[2] = tested on: INS-1 cells; test: Insulin secretion from INS-1 cells; format: cell-based; settings: dose dependent
[3] = tested on: 8.3-TCR NOD mice; test: Prevention of diabetes in transgenic 8.3-TCR NOD mice; format: in vivo
From the text: TCR NOD mice were used to investigate the potential role of GABA on the T-cell function. The 8.3-TCR NOD mouse is a severe T1D mouse model (Amrani A et al, 1999 Clin Invest. 103(8):1201-9) and developed diabetic hyperglycemia at about age of 11 wks (FIG. 8A). Autoimmune diabetes in NOD mice results from destruction of pancreatic b-cells by T lymphocytes. The CD8+ cytotoxic T lymphocytes is thought to be the initial beta-cell insult in diabetes in which the initiation is a Fas-dependent process (Amrani A et al, 1999 Clin Invest. 103(8):1201-9). The 8.3-TCR NOD mouse monoclonal T-cells bearing a T-cell receptor (8.3-TCR) that is representative of TCRs used by CD8+ cytotoxic T lymphocytes propagated from the earliest insulitic lesions of NOD mice.
GAD65 has long been considered as a major antigen initiating the pathogenesis in T1D. Given that the protective effects of GABA in the development of diabetes in the diabetic animal models, I proposed that as the rate limiting enzyme of GABA synthesis, GAD has important role in maintaining islet function. To determine if treatment of GABA has effects on the expression levels of GAD65, we performed pancreatic GAD staining in the TCR transgenic NOD mice.
as §1
Following dewaxing, […] as described previously (Wang Q, Brubaker P L 2002 Diabetologia 45:1263-1273), endogenous peroxidase activity was quenched by incubating sections in 0.3% H2O2 in water for 30 min and antigen retrieval was performed by heating slides in 10 mM sodium citrate buffer, pH 6.0, at ˜70° C. for 30 min. […]

[4] = GABA treated vs non-treated MLDS-mice
[5] = GABA treated vs untreated MLDS-mice
[6] = GABA vs non-GABA treated MLDS-mice
[7] = pancreatic immunohistochemistry, vs non-treated MLDS-mice

Compound: NCCCC(=O)O [GABA, gamma-aminobutyric acid]
- glucose tolerance in normal mice (IPGTT) ([1]; 7 days before STZ injection): no effect
- glucose tolerance (IPGTT) [1, 4]: significant improved glucose tolerance; also recorded: maintained close to normal glucose tolerance
- glucose tolerance, area under curve [1, 4]: significantly improved
- circulating insulin [1, 5]: significantly elevated circulating insulin levels
- ratio of insulin to glucagon levels [1, 5]: increased ratio of insulin to glucagon levels; also recorded: significantly increased insulin/glucagon ratio
- serum glucagon levels [1, 5]: reduced serum glucagon levels; also recorded: significantly reduced glucagon levels
- circulating IL-12 [1, 6]: significantly reduced
- circulating INF-gamma [1, 6]: significantly reduced
- circulating level of TNF-alpha [1, 6]: significantly decreased
- circulating level of pro-inflammatory IL-1 (IL-1-beta) [1, 6]: significantly decreased
- serum level of IL-6 [1, 6]: not different
- serum level of Th2 cytokine IL-10 [1, 6]: not different
- diabetic symptoms such as polydipsia and polyuria ([1]; MLDS mice, metabolic studies): significantly improved diabetic symptoms
- diabetic sickness ([1]; MLDS mice, throughout the feeding course): not found in any mouse
- glucagon tolerance (glucagon tolerance test) ([1]; MLDS-mice): significantly improved glucagon tolerance; also recorded: largely improved
- improvement of glucagon intolerance, area under curve ([1]; MLDS-mice): statistically significant
- insulin sensitivity (insulin tolerance test) ([1]; MLDS-mice): does not alter the insulin sensitivity; also recorded: did not alter the insulin sensitivity
- insulitis scored by HE staining for infiltrated lymphocytes in the islets ([1]; MLDS-mice): significant reduction of insulitis
- number of GABA treated STZ mice that developed overt hyperglycemia ([1]; after 7-day MLDS injection, control mice 8 of total 8): one
- development of diabetic hyperglycemia (blood glucose) ([1]; daily i.p. GABA 20·g/mouse, MLDS CD1 mice, vs untreated): prevents development of diabetic hyperglycemia; also recorded: remarkably prevented development of hyperglycemia
- alpha-cell mass [1, 7]: significantly reduced alpha-cell mass
- beta-cell mass [1, 7]: significantly reserved the beta-cell mass
- insulin secretion from INS-1 cells [2]: stimulated insulin secretion; also recorded: dose-dependently increases insulin secretion
- alpha-cell mass ([3]; GABA-treated TCR-NOD mice): largely reserved
- islet mass / beta-cell mass ([3]; GABA-treated TCR-NOD mice): largely reserved
- pancreatic insulin and GAD65/67 staining ([3]; TCR transgenic NOD mice): largely reserved the islet beta-cell mass and the intact association with GAD65; also recorded: reserves insulin and GAD65/67 content
- development of diabetic hyperglycemia ([3]; daily GABA vs saline-treated): completely prevented the development of diabetic hyperglycemia; also recorded: completely prevents diabetic hyperglycemia
- lymphocytes (T-cell) infiltration in pancreatic islets ([3]; vs PBS-treated): dramatically blocked; also recorded: obviously diminished
